Measured values as given in patent publication US20240398793A1, “Methods of Treating Lymphedema” (Celltaxis, LLC, priority 2021, published 2024).
Read-outs that look alike come from different tables or passages of the source.

Columns and labels:
[1] = biological target: T1, LTA4H epoxide hydrolase (Homo sapiens (Human), UniProt P09960); assay: LTA4H epoxide hydrolase enzymatic activity (LTB4 production) in vitro; assay type: biochemical; details: read-out: IC50, LTA4H-mediated production of LTB4
Protocol: The hydrolase-homogeneous time resolved fluorescence assay is a two-step assay that measures the hydrolysis of LTA4 to LTB4 by analyzing the amount of LTB4 produced. The first step involves the enzymatic conversion of LTA4 to LTB4 and the second step involves the quantification of the LTB4 formed with a homogeneous time resolved fluorescence assay. […] In the whole blood assay, the inhibitor compounds are tested for their ability to inhibit LTB4 release upon stimulation with calcium ionophore and the LTB4 levels in supernatants are measured by ELISA.

[2] = test system: LTB4 production in human whole blood; assay: LTB4 production in ex vivo stimulated human whole blood; assay type: cell-based
Description: The IC50 of LTA4H epoxide hydrolase activity can be measured using methods known in the art, for example, using the LTA4 hydrolase homogenous time resolved fluorescence assay which is described, for example, in U.S. Pat. Nos. 7,737,145 and 10,202,362; the contents of which are expressly incorporated by reference herein. The hydrolase-homogeneous time resolved fluorescence assay is a two-step assay that measures the hydrolysis of LTA4 to LTB4 by analyzing the amount of LTB4 produced. The first step involves the enzymatic conversion of LTA4 to LTB4 and the second step involves the quantification of the LTB4 formed with a homogeneous time resolved fluorescence assay. LTA4H epoxide hydrolase activity can also be measured in a whole blood assay, for example, using human whole blood, using the method described in Penning, T. D. et al., J. Med. Chem. (2000), 43 (4): 721-735 and U.S. Pat. No. 7,737,145; the contents of each of which are expressly incorporated by reference herein. In the whole blood assay, the inhibitor compounds are tested for their ability to inhibit LTB4 release upon stimulation with calcium ionophore and the LTB4 levels in supernatants are measured by ELISA. LTA4H epoxide hydrolase activity can also be measured according to the method described in Low et al. (2017). […]

[3] = test system: LTB4 production in blood; assay: Human pharmacodynamic studies, inhibition of LTB4 production in blood; assay type: in vivo
[4] = test system: patients with cystic fibrosis; assay: Phase 2 study in adult CF patients, 48 weeks, efficacy; assay type: in vivo, human; details: for rate of pulmonary exacerbations: 48 weeks of treatment
[5] = Preclinical phototoxicity studies
[6] = Long-term animal safety studies; assay type: in vivo, animals
[7] = Human pharmacokinetics after oral administration; assay type: in vivo; details: for half-life / Tmax: human, plasma; for half-life: oral, read-out: T1/2 (elimination half-life); for Tmax: po
[8] = biological target: T1, LTA4H epoxide hydrolase; details: read-out: LTA4H epoxide hydrolase potency; Bhatt et al. (2017); cited from earlier work
[9] = Clinical safety and tolerability

T1 sequence (P09960 whole entry): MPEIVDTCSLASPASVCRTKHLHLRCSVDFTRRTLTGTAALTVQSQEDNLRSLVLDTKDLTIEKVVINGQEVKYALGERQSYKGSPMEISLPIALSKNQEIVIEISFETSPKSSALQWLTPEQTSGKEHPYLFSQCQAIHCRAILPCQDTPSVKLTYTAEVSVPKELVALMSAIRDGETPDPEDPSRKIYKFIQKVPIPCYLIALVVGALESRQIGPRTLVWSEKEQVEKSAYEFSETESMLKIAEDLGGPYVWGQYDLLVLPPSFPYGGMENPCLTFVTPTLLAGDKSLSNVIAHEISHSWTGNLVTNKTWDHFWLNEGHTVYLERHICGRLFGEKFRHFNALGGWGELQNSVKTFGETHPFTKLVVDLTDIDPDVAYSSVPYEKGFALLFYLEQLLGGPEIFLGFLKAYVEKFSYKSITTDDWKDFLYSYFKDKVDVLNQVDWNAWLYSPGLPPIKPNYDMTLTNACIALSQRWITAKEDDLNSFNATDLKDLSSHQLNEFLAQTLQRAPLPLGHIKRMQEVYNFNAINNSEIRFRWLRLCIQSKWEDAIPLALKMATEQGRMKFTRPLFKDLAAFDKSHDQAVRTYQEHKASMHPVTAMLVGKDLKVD

With O=C(O)c1ccc(CN2C[C@@H]3C[C@H]2CN3Cc2ccc(Oc3ccc(-c4ncco4)cc3)cc2)cc1 [Acebilustat, 4-{[(1S,4S)-5-({4-[4-oxazol-2-yl-phenoxy]phenyl}methyl)-2,5-diazabicyclo[2.2.1]heptan-2-yl]methyl}benzoic acid] the IC50 [1] was 13 nM, the IC50 ([2]; ex vivo stimulated human whole blood) was 64 nM and the IC50 ([2]; human whole blood tested ex vivo, approximate) was roughly 0.0308 µg/mL. For the same molecule, the inhibition at 50 mg ([3]; 50 mg dose, human pharmacodynamic studies) was no less than 63%, the inhibition at 100 mg ([3]; 100 mg dose, human pharmacodynamic studies) was no less than 74% and the inhibition at 150 mg ([3]; 150 mg dose, human pharmacodynamic studies) was no less than 82%. It also gave an inhibition at 200 mg ([3]; 200 mg dose, human pharmacodynamic studies) of no less than 85%, an EC50 ([3]; Homo sapiens, in vivo, humans, estimated) of 0.093 µg/mL and an EC50 ([3]; human clinical PD studies, blood) of 190 nM. The “EC50 for inhibition of LTB4 production” value ([3]; in vivo, humans, estimated) was 0.093 µg/mL, the “engagement of the pharmacologic mechanism in blood over 24-hour dosing interval” value ([3]; once-daily oral doses of 50 mg and above, phase 1 studies) was “significant engagement of the pharmacologic mechanism” and the “change from baseline in percent predicted FEV1 versus placebo” value ([4]; 48-week Phase 2 CF study, primary endpoint) was “no statistically significant difference”. For the same molecule, the “time to first pulmonary exacerbation” value ([4]; CF patients, 48 weeks, secondary efficacy analysis) was “concordant numerical benefit”, the risk of infection ([4]; adult CF patients, 48 weeks) was “no evidence of increased risk of infection” and the “rate of pulmonary exacerbations” value ([4]; adult CF patients) was “concordant numerical benefit”. For the same molecule, the “rate of pulmonary exacerbations” value ([4]; adult CF patients, listed as acebilustat) was “showed promise in reducing the rate of pulmonary exacerbations”, the phototoxic effects [5] was “no potential for phototoxic effects” and the ophthalmologic changes ([6]; long term safety studies) was “no evidence for ophthalmologic changes”. The dose limiting toxicity ([6]; long-term animal safety studies across species) was “failure to gain weight associated with reduced food consumption”, the half-life ([7]; CF patients) was 8 to 9 h and the half-life ([7]; healthy volunteers) was 15 to 18 h. The Tmax ([7]; humans, fasting) was roughly 1.5 h, the Tmax ([7]; humans, with a high-fat meal) was 5 to 6 h and the “exposures (Cmax, AUC), healthy volunteers versus CF patients” value ([7]; humans) was “did not vary appreciably”. The “time to steady state exposure” value ([7]; humans, repeated dosing) was 7 days, the “effect of larger body size and concomitant CFTR modulator therapies on clearance” value ([7]; population PK, Phase 2 CF trial) was “increase clearance” and the IC50 [8] was 12 nM. For the same molecule, the tolerability ([9]; CF patients, 50 mg and 100 mg per day for 48 weeks) was “generally well tolerated”, the “serious adverse reactions (SARs)” value ([9]; Phase 1 studies, healthy volunteers or subjects with CF) was “No SARs were reported” and the safety and tolerability ([9]; across six clinical studies, 5 to 200 mg) was “generally safe and well tolerated”. For the same molecule, the “circulating neutrophil counts or sputum microbiology” value ([9]; clinical studies) was “did not alter”, the “headache considered to be related to Acebilustat” value ([9]; clinical studies) was 8% and the tolerability ([9]; healthy volunteers, once-daily oral up to 200 mg/day for 14 days) was “well tolerated”.
